What was measured:
[1] = test system: loperamide-induced delayed gastric emptying; assay: Rat gastric emptying assay (reversal of loperamide-induced delayed gastric emptying); format: in vivo; conditions: administered orally, loperamide 1 mg/kg s.c.
human mu opioid receptor [2] = biological target: T1, human mu opioid receptor (Homo sapiens, UniProt P35372); assay: biochemical; conditions: read-out: intrinsic activity (IA), bound GTP-Eu relative to DAMGO (IA=100)
T1 construct: host or cells: CHO-K1
T1 sequence (P35372 whole entry): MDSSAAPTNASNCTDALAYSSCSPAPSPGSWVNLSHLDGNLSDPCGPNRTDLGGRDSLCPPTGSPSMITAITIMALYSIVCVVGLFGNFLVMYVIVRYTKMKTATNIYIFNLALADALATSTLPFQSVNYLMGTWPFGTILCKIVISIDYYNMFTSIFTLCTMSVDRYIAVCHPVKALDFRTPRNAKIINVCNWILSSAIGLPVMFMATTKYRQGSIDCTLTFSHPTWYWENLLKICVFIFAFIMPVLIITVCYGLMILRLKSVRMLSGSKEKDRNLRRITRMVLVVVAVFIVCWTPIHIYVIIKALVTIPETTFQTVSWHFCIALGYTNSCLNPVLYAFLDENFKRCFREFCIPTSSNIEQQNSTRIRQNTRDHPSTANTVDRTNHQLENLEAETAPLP

human mu opioid receptor [3] = biological target: T1, human mu opioid receptor; assay: biochemical; format: binding

| SMILES | ID50, dose required for 50% reversal of the effects of loperamide [1] | Emax (human mu opioid receptor [2]) | Ki (human mu opioid receptor [3]) | pKi at the human mu opioid receptor (human mu opioid receptor [3]) |
| --- | --- | --- | --- | --- |
| CCC(CC)CN(CCN1[C@@H]2CC[C@H]1C[C@@H](c1cccc(C(N)=O)c1)C2)C(=O)CS(C)(=O)=O [Example 7, 3-endo-(8-{2-[(2-ethylbutyl)-(2-methanesulfonyl-acetyl)amino]ethyl}-8-azabicyclo[3.2.1]oct-3-yl)-benzamide] | 0.53 mg/kg | 3% | 0.158 nM |  |
| CCC(CC)CN(CCCN1[C@@H]2CC[C@H]1C[C@@H](c1cccc(C(N)=O)c1)C2)C(=O)CS(C)(=O)=O [Example 6, 3-endo-(8-{3-[(2-ethylbutyl)-(2-methanesulfonyl-acetyl)amino]propyl}-8-azabicyclo[3.2.1]oct-3-yl)-benzamide] |  | 1% | 0.126 nM |  |
| CCC(CC)CN(CCCN1[C@@H]2CC[C@H]1C[C@@H](c1cccc(C(N)=O)c1)C2)C(=O)CO [Example 1, 3-endo-(8-{3-[(2-ethylbutyl)-(2-hydroxyacetyl)-amino]propyl}-8-aza-bicyclo[3.2.1]oct-3-yl)-benzamide] | 0.29 mg/kg | 3% |  | 10.0 |

Source: patent US8518966B2, “Amidoalkyl-8-azabicyclo[3.2.1]octane compounds as mu opioid receptor antagonists” (Theravance, Inc., priority 2007, dated 2013)
